Data: PubChem BioAssay (NCI)
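Compound exposure: 48 hours, 5 concentrations, 96-well plates. Abbreviation: GI50, concentration required for 50% inhibition of growth. At the TGI there is no net growth.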

Tests used:
Test in all cases: growth of human tumour cells (NCI), 48 h
COLO 205 colon = test system: COLO 205 colon
DU-145 prostate = test system: DU-145 prostate
HCT-116 colon = test system: HCT-116 colon
HOP-62 NSCLC = test system: HOP-62 NSCLC
OVCAR-5 ovarian = test system: OVCAR-5 ovarian
SF-539 CNS = test system: SF-539 CNS
SK-MEL-28 melanoma = test system: SK-MEL-28 melanoma
SK-OV-3 ovarian = test system: SK-OV-3 ovarian
SW-620 colon = test system: SW-620 colon
TK-10 renal = test system: TK-10 renal

| Compound | TGI (COLO 205 colon) [µM] | TGI (DU-145 prostate) [µM] | TGI (HCT-116 colon) [µM] | TGI (HOP-62 NSCLC) [µM] | TGI (OVCAR-5 ovarian) [µM] | TGI (SF-539 CNS) [µM] | TGI (SK-MEL-28 melanoma) [µM] | TGI (SK-OV-3 ovarian) [µM] | TGI (SW-620 colon) [µM] | TGI (TK-10 renal) [µM] | GI50 (DU-145 prostate) [µM] | GI50 (HCT-116 colon) [µM] | GI50 (HOP-62 NSCLC) [µM] | GI50 (SF-539 CNS) [µM] |
| --- | --- | --- | --- | --- | --- | --- | --- | --- | --- | --- | --- | --- | --- | --- |
| COc1ccc(-c2cc(-c3ccc(Nc4ccnc5cc(C(F)(F)F)ccc45)cc3)[nH]c(=O)c2C#N)c2ccccc12 | > 58.4 | > 83.7 | > 100 | 47.2 | > 100 | > 53.7 | > 100 | > 100 | > 100 | > 90.7 |  |  |  |  |
| Oc1ccc2c(c1)OCC(O)(c1ccccc1O)C2 (centres undefined) | > 100 | > 100 | > 100 | > 100 | > 100 | > 100 | > 100 | > 100 | > 100 | > 100 |  |  |  |  |
| CC1=C(C(=O)OCCO[N+](=O)[O-])C(c2ccccc2C(F)(F)F)C(C(=O)OC(C)C)=C(C)N1 (centres undefined) | 28.4 | > 100 | 29.1 | 45.8 | 37.3 | 31.6 | 33.5 | > 100 | > 100 | 77.4 |  |  |  |  |
| NC(=O)c1n[nH]n(-c2ccccc2)c1=O | > 100 | > 100 | > 100 | > 100 | > 100 | > 100 | > 100 | > 100 | > 100 | > 100 |  |  |  |  |
| CCOC(=O)c1c(C)n(Cc2ccccc2)c2c1cc(O)c1[nH]c3c(c12)CCCC3 | 18.9 | 26.1 | 27.8 | 24.6 | 20.1 | 5.54 | 18.7 | 24.5 | 13.3 | 23.6 |  |  |  |  |
| O=C(O)c1c(CC(Cc2ccc3c(c2)CCCC3)C(=O)O)ccc2c1CCCC2 (centres undefined) | > 100 | > 100 | > 100 | > 100 | > 100 | > 100 | > 100 | > 100 | > 100 | > 100 |  |  |  |  |
| CCCCCCCCCCCCCCCCCCNc1ccn(C2OC(COP(=O)(O)O)C(O)C2O)c(=O)n1 (centres undefined) | > 100 | > 100 | > 100 | > 100 | > 100 | > 100 | > 100 | > 100 | > 100 | > 100 |  |  |  |  |
| COc1ccc(/C=C2\CN(C)CC3=C2OC(N)=C(C#N)C3c2ccc(OC)cc2)cc1 (centres undefined) | > 100 | > 100 | > 100 | > 100 | > 100 | > 100 | > 100 | > 100 | > 100 | > 100 |  |  |  |  |
| N#CCCC(CC#N)N1CCN(CCO)CC1 (centres undefined) | > 100 | > 100 | > 100 | > 100 | > 100 | > 100 | > 100 | > 100 | > 100 | > 100 |  |  |  |  |
| COC(=O)[C@H]1[C@H](C(=O)OC)[C@@H](C)c2c(ccc3c2[nH]c2ccccc23)[C@@H]1C | > 100 | > 100 | > 100 | > 100 | > 100 | > 100 | > 100 | > 100 | > 100 | > 100 |  |  |  |  |
| Cc1cc2c(cc1O)CC[C@@H]1[C@@H]2CC[C@]2(C)[C@@H](O)CC[C@@H]12 | 32.5 | 36.1 | 13.4 | 24.9 | 71.9 | 19.8 | 27.3 | 34.1 | 37.5 | 91.5 | 16 | 3.63 | 10.9 | 7.46 |
| C=CCN1C(=O)/C(=C/c2ccc(C)cc2)N=C1SC/C=C/C | 90.5 | > 100 | > 100 | > 100 | > 100 | > 100 | > 100 | > 100 | > 100 | > 100 |  |  |  |  |
| O=c1nc2n(cc1/C=C\Br)C1CC(O)C(CO2)O1 (centres undefined) | > 100 | > 100 | > 100 | > 100 | > 100 | > 100 | > 100 | > 100 | > 100 | > 100 |  |  |  |  |
| C=C1C(=O)OC2/C=C(\C)C(O)CC(O)C(C)(O)CC(OC(=O)/C(C)=C/C)C12 (centres undefined) | > 100 | > 100 | > 100 | > 100 | > 100 | > 100 | > 100 | > 100 | > 100 | > 100 |  |  |  |  |
| O=C(CCCCCCCCC(=O)NN1C(=O)/C(=C\c2ccc(O)c(O)c2)SC1c1c(O)ccc2ccccc12)NN1C(=O)C(=Cc2ccc(O)c(O)c2)SC1c1c(O)ccc2ccccc12 (centres undefined) | 73.5 | > 59.8 | > 100 | > 36.8 | > 100 | 97.2 | > 100 | > 86.8 | > 100 | > 100 |  |  |  |  |
| CC(SC(=S)N1CCCCC1)C(=O)Nc1nnc(-c2ccc(Cl)cc2)o1 (centres undefined) | > 100 | > 100 | 40.3 | > 100 | > 100 | > 100 | > 100 | > 100 | > 100 | > 100 |  |  |  |  |
| O=C1CC(Br)c2c(Cl)sc(Cl)c21 (centres undefined) | 28.6 | 31.3 | 16.9 | 19.1 | 36.3 | > 100 | 30.3 | 30.4 | 5.43 | 7.3 |  |  |  |  |
